Data published in patent US9862748B2, “Peptide compounds and methods of production and use thereof” (priority 2012, dated 2018).
Read-outs that look alike come from different tables or passages of the source. Square brackets hold non-standard residues; d marks the D form. Ends that are not written are not given here. Peptide text beside a SMILES is read from it. AEEA = NCCOCCOCC(=O)O

Columns and labels:
[1] = tested on: Pseudomonas aeruginosa ATCC® 27853™; format: cell-based; design: Effects of Peptide Compounds on Pseudomonas aeruginosa ATCC ® 27853 ™: unit not given here; conditions: for Effects of Peptide Compounds on Pseudomonas aeruginosa ATCC ® 27853 ™: Table 6; for activity against P. aeruginosa: 120-146WR at 25 μM; for effectiveness against Pseudomonas aeruginosa compared with gentamicin, pH 7.2: peptide at 25 VIM (so in the source)
Procedure: (§1) In vitro bactericidal activity: The three peptide compounds BCC01-5RMP (SEQ ID NO: 21), BCC02-5RMP (SEQ ID NO: 22), and BCC03-5RMP (SEQ ID NO: 23) were assayed for in vitro bactericidal activity against Pseudomonas aeruginosa, Escherichia coli, Salmonella typhimurium, and Acinetobacter baumannii. The starting inoculum for all experiments was 1×10^6 colony forming units (CFU)/ml. The CFU remaining at the end of 60 to 180 minute incubation was determined, and the data plotted as a log reduction in CFU/ml.
(§2) For FIGS. 10-13, in vitro bactericidal assays were performed using a starting inoculum of 1×10^6 CFU/ml of the bacterial suspension. The CFU remaining at the end of the 60-180 minute incubation was determined, and the data was plotted as log reduction in CFU/ml.
(§3) In particular, each of the test peptides (CAP37 peptides 120-146WR, 120-146WH, and 95-122 (SEQ ID NOs: 30, 31, and 26, respectively)) was used at 25, 12.5, 6.25, and 3.12 μM. Gentamicin was used at 4 μg/ml. 1×10^6/ml Acinetobacter baumannii ATCC® BAA-747™ or Pseudomonas aeruginosa ATCC® 27853™ (American Type Culture Collection, Manassas, Va.) were incubated with the peptides, negative buffer control (tryptone saline), and positive control gentamicin at pH 5.5 or 7.2. A 60 minute incubation was used for Acinetobacter baumannii ATCC® BAA-747™, while a 180 minute incubation was used for Pseudomonas aeruginosa ATCC® 27853™. 50 μl aliquots were plated out on agar plates and incubated overnight. Colony forming units were counted after overnight incubation and CFU/ml calculated.
For FIG. 14, 1×10^6/ml Pseudomonas aeruginosa ATCC® 27853™ were incubated with each of the test peptides (CAP37 peptides 120-146WR, 120-146WH, 120-146QR, 120-146QH, 120-146QR-5RMP, and 120-146QH-5RMP (SEQ ID NOs: 30, 31, 28, 29, 32, and 33, respectively)) at 150, 75, and 37.5 μg/ml, or negative buffer control (tryptone saline), for 180 minutes at pH 5.5. 50 μl aliquots were plated out on agar plates and incubated overnight. Colony forming units were counted after overnight incubation and CFU/ml calculated.

[2] = tested on: E. coli ATCC® strain 25922™; format: cell-based, Escherichia coli; design: unit not given here; conditions: Table 6
Procedure: as §1

[3] = tested on: Pseudomonas clinical isolate B64; test: BIOSCREEN C growth assay / MIC, antibiotic in combination with peptide; format: cell-based, P. aeruginosa; conditions: for MIC, antibiotic alone: clinical isolate of P. aeruginosa, 1×10^5 CFU/well, 24 hours
Procedure: The peptide and antibiotics were set up in the wells of the microtiter plate at starting ratios of MIC equivalents of antibiotic:peptide at 3:1, 1:1, and 1:3. They were serially diluted to concentrations well below suboptimal/sublethal levels of the antibiotic and peptide. The organism was added (1×10^5 CFU/well), the BIOSCREEN C™ assay (Growth Systems USA, Piscataway, N.J.) was performed, and data was collected over 24 hours.

[4] = tested on: Acinetobacter baumannii ATCC® BAA-747™; format: cell-based
Procedure: as §1, §2, §3

swine skin wounds [5] = test: Swine full thickness excisional dermal wound model, wound area; format: in vivo; conditions: for Mean Wound Healing (%) Day 0 / Mean Wound Healing (%) Day 3 / Mean Wound Healing (%) Day 5 / Mean Wound Healing (%) Day 7 / Mean Wound Healing (%) Day 10 / Mean Wound Healing (%) Day 14: 3 mg/ml, 0.20 ml per wound, reapplied daily; for dermal wound healing: topical 3 mg/ml over 14 days, vs saline
Procedure: In this Example, peptide compounds of the presently disclosed and claimed inventive concept(s) were evaluated as to their activity on the dermal wound healing process in a clinically relevant swine full thickness excisional wound model. Three different peptide formulations (Group B, Peptide 95-122 (SEQ ID NO: 26); Group C, Peptide 120-146WH (SEQ ID NO: 31); and Group D, Peptide 120-146QH-5RMP (SEQ ID NO: 33)) were each evaluated at the same concentration (3 mg/ml). Sterile saline served as the control (Group A).
(§4) Full thickness excisional wounds were induced on the dorsum of swine (N=3) using a 1.0 cm biopsy punch. Treatments were administered (0.20 ml) to each wound (N=6 wounds per group), and the wounds were dressed with standard occlusive dressing ([…]™, 3M Corporation, St. Paul, Minn.). Treatments were reapplied daily and dressings changed. Clinical wound healing observations and wound area (2 mm) measurements were performed on days 0, 3, 5, 7, 10, and 14 post-wounding. Wound area (2 mm) data were expressed as percentage (%) of wound healing. Animals were terminated on day 14 with wounds harvested and processed for histological evaluation. […] All peptide formulation treatment groups healed faster with greater rate of closure and re-epithelialization over time, as compared to the saline control (Group A).

swine skin wounds [6] = test: Swine dermal wound model, histological evaluation; format: in vivo; conditions: day 14 post-wounding; for Histopathology Results, Mean Angiogenesis / Histopathology Results, Mean Epithelization / Histopathology Results, Mean Granulation / Histopathology Results, Mean Inflammation: 3 mg/ml
Procedure: The characteristics that were measured are required to indicate features of a well-healed wound. Inflammation should be low and re-epithelialization high.
as §4
The histology correlated with the clinical observations. […] There were minimal differences in the amount or character of granulation tissue, inflammation, and angiogenesis. All the wounds were well filled and vascularized.

[7] = tested on: mouse cornea (corneal epithelial abrasion); test: In vivo model of corneal wound healing; conditions: treated at 0 and 16 hours; 95-122 10^−5 M; 120-146WH 10^−8 M or 10^−6 M; HB-EGF 250 ng/ml
Procedure: The in vivo model of wound healing was carried out using a disposable biopsy punch (2 mm, Miltex, York, Pa.) to demarcate the mouse cornea and a 0.5 mm burr using the AlgerBrush II (The Alger Company, Inc., Lago Vista, Tex.) to remove the corneal epithelium.
Mice were anesthetized using ketamine (100 mg/kg; Bionichepharma, LLC., St. Lake Forrest, Ill.) and xylazine ([…]; Rompun; Bayer Corp., Shawnee Mission, Kans.), and the right cornea was wounded as follows. A disposable biopsy punch (2 mm, Miltex, York, Pa.) was used to demarcate the mouse cornea. The corneal epithelium was carefully removed within the 2 mm demarcated area with a 0.5 mm burr using the AlgerBrush II (The Alger Company, Inc., Lago Vista, Tex.). The corneal abrasions were treated at 0 and 16 hours with HB-EGF (250 ng/ml), rCAP37 (250 ng/ml), or vehicle control (0.9% sodium chloride, pH 5.5, Baxter, Deerfield, Ill.). Corneal abrasions were visualized using sterile fluorescein sodium ophthalmic strips USP (FLUORETS®, Chauvin Laboratory, Aubenas, France) dampened with sterile PBS. Images were taken at 0, 16, 24, and 48 hours immediately following fluorescein staining using a surgical microscope equipped with a camera (Carl Zeiss OPMI VISU 140, Carl Zeiss Surgical, Inc., Oberkochen, Germany). The areas of the open wound were quantitated using ImageJ software (US National Institutes of Health), and the results were reported as the percentage of wound closure.
Whole mouse eyes were collected for histology at 0, 6, 16, 24, and 48 hours post wounding and were immediately placed in Prefer fixative (Anatech LTD., Battle Creek, Mich.) for 20 minutes before being transferred to 70% ethanol. Tissues were paraffin-embedded and cut at a thickness of 5 μm, mounted on SUPERFROSTPLUS® slides (Statlab Medical Products, Lewisville, Tex.), and subsequently deparaffinized, rehydrated, and washed in deionized water. Sections were stained with hematoxylin (Leica Microsystems, Buffalo Grove, Ill.) and rinsed twice in deionized water before being washed in Blue Buffer (Leica Microsystems). The sections were finally washed in deionized water and 95% ethanol prior to being counterstained with eosin (Leica Microsystems). Sections were dehydrated in ethanol and cleared in xylene.

CC[C@H](C)[C@H](NC(=O)[C@H](CC(C)C)NC(=O)[C@H](C)NC(=O)CNC(=O)CNC(=O)[C@H](CS)NC(=O)[C@H](Cc1ccccc1)NC(=O)[C@H](Cc1c[nH]cn1)NC(=O)[C@H](CCCNC(=N)N)NC(=O)CNC(=O)[C@H](CCC(N)=O)NC(=O)[C@H](CC(N)=O)NC(=O)COCCOCCNC(=O)COCCOCCN)C(=O)N[C@@H](Cc1c[nH]cn1)C(=O)N[C@@H](C)C(=O)N[C@@H](CCCNC(=N)N)C(=O)N[C@@H](Cc1ccccc1)C(=O)N[C@H](C(=O)N[C@@H](CCSC)C(=O)N[C@H](C(=O)N[C@@H](C)C(=O)N[C@@H](C)C(=O)N[C@@H](CO)C(=O)N[C@@H](CO)C(=O)N[C@@H](Cc1ccccc1)C(=O)N[C@@H](CCC(N)=O)C(=O)O)[C@@H](C)O)C(C)C [BCC03-MP] (H-[AEEA][AEEA]NQGRHFCGGALIHARFVMTAASSFQ-OH; N-terminus and C-terminus assumed)
Effects of Peptide Compounds on Pseudomonas aeruginosa ATCC ® 27853 ™ ([1]; Peptide Conc 12.5 μg/ml): −45.6
Effects of Peptide Compounds on Pseudomonas aeruginosa ATCC ® 27853 ™ ([1]; Peptide Conc 50 μg/ml): −2.9
Effects of Peptide Compounds on Pseudomonas aeruginosa ATCC ® 27853 ™ ([1]; Peptide Conc 100 μg/ml): 44.0
Effects of Peptide Compounds on Escherichia coli ATCC ® 25922 ™ ([2]; Peptide Conc 6.25 μg/ml): 6.4
Effects of Peptide Compounds on Escherichia coli ATCC ® 25922 ™ ([2]; Peptide Conc 200 μg/ml): 46.0

C[C@H]1COc2c(N3CCN(C)CC3)c(F)cc3c(=O)c(C(=O)O)cn1c23 [Levofloxacin, reference compound]
MIC, antibiotic alone [3]: 15 µg/mL

GTRCQVAGWGSWRSGGRLSRFPRFVNV [Peptide 120-146WR]
activity against A. baumannii at 12.5 μM ([4]; 12.5 μM): highly active
activity against A. baumannii at 25 μM [4]: highly active
activity against P. aeruginosa ([1]; gentamicin 4 μg/ml): highly active
effectiveness against Pseudomonas aeruginosa compared with gentamicin, pH 7.2 ([1]; gentamicin 4 μg/ml): as effective as the standard antibiotic gentamicin

gentamicin [reference compound]
activity against Acinetobacter baumannii at pH 5.5 ([4]; gentamicin 4 μg/ml, 60 minutes): unable to kill the bacteria
activity against Acinetobacter baumannii at pH 7.2 ([4]; gentamicin 4 μg/ml, 60 minutes): active against the bacteria
activity against P. aeruginosa ([1]; gentamicin 4 μg/ml): highly active
log reduction of CFU/ml, Pseudomonas aeruginosa, pH 5.5 ([1]; gentamicin 4 μg/ml, 180 minutes, FIG. 13): 2 log

CO/N=C(\C(=O)N[C@@H]1C(=O)N2C(C(=O)O)=C(COC(C)=O)CS[C@H]12)c1csc(N)n1 [Cefotaxime, reference compound]
bactericidal impact of antibiotic alone at sublethal concentration ([3]; 2.8 μg/ml of Cefotaxime): very little bactericidal impact
MIC, antibiotic alone [3]: 15 µg/mL

CC(C)C[C@H](NC(=O)[C@H](CCCNC(=N)N)NC(=O)CNC(=O)CNC(=O)[C@H](CO)NC(=O)[C@H](Cc1c[nH]cn1)NC(=O)[C@H](CCC(N)=O)NC(=O)[C@H](CO)NC(=O)CNC(=O)[C@H](Cc1c[nH]c2ccccc12)NC(=O)CNC(=O)[C@H](C)NC(=O)[C@@H](NC(=O)[C@H](CCC(N)=O)NC(=O)[C@H](CS)NC(=O)[C@H](CCCNC(=N)N)NC(=O)[C@@H](NC(=O)CNC(=O)[C@H](CCCNC(=N)N)NC(=O)[C@H](CCCNC(=N)N)NC(=O)[C@H](CCCNC(=N)N)NC(=O)[C@H](CCCNC(=N)N)NC(=O)COCCOCCNC(=O)COCCOCCN)[C@@H](C)O)C(C)C)C(=O)N[C@@H](CO)C(=O)N[C@@H](CCCNC(=N)N)C(=O)N[C@@H](Cc1ccccc1)C(=O)N1CCC[C@H]1C(=O)N[C@@H](CCCNC(=N)N)C(=O)N[C@@H](Cc1ccccc1)C(=O)N[C@H](C(=O)N[C@@H](CC(N)=O)C(=O)N[C@H](C(=O)N[C@@H](CCCNC(=N)N)C(=O)O)C(C)C)C(C)C [120-146QH-5RMP] (H-[AEEA][AEEA]RRRRGTRCQVAGWGSQHSGGRLSRFPRFVNVR-OH; N-terminus and C-terminus assumed)
Mean Wound Healing (%) Day 0 (swine skin wounds [5]): 0.0%
Mean Wound Healing (%) Day 3 (swine skin wounds [5]): 22.5%
Mean Wound Healing (%) Day 5 (swine skin wounds [5]): 34.1%
Mean Wound Healing (%) Day 7 (swine skin wounds [5]): 64.1%
Mean Wound Healing (%) Day 10 (swine skin wounds [5]): 93.7%
Mean Wound Healing (%) Day 14 (swine skin wounds [5]): 98.0%
dermal wound healing (swine skin wounds [5]): accelerate dermal wound healing
epidermal resurfacing and maturation of the epidermis versus saline control (swine skin wounds [6]): greater extent of epidermal resurfacing and maturation of the epidermis
Histopathology Results, Mean Angiogenesis (swine skin wounds [6]): 1.3
Histopathology Results, Mean Epithelization (swine skin wounds [6]): 4.0
Histopathology Results, Mean Granulation (swine skin wounds [6]): 4.0
Histopathology Results, Mean Inflammation (swine skin wounds [6]): 0.5

GTRCQVAGWGSWHSGGRLSRFPRFVNV [Peptide 120-146WH]
corneal wound healing versus vehicle [7]: significantly greater
activity against A. baumannii at 25 μM [4]: highly active
Mean Wound Healing (%) Day 0 (swine skin wounds [5]): 0.0%
Mean Wound Healing (%) Day 3 (swine skin wounds [5]): 22.1%
Mean Wound Healing (%) Day 5 (swine skin wounds [5]): 35.9%
Mean Wound Healing (%) Day 7 (swine skin wounds [5]): 59.7%
Mean Wound Healing (%) Day 10 (swine skin wounds [5]): 93.5%
Mean Wound Healing (%) Day 14 (swine skin wounds [5]): 97.5%
dermal wound healing (swine skin wounds [5]): accelerate dermal wound healing
epidermal resurfacing and maturation of the epidermis versus saline control (swine skin wounds [6]): greater extent of epidermal resurfacing and maturation of the epidermis
Histopathology Results, Mean Angiogenesis (swine skin wounds [6]): 1.7
Histopathology Results, Mean Epithelization (swine skin wounds [6]): 3.7
Histopathology Results, Mean Granulation (swine skin wounds [6]): 4.0
Histopathology Results, Mean Inflammation (swine skin wounds [6]): 0.5
effectiveness against Pseudomonas aeruginosa compared with gentamicin, pH 7.2 ([1]; gentamicin 4 μg/ml): as effective as the standard antibiotic gentamicin
